The values that follow come from paper PMC8500670, “A selective WDR5 degrader inhibits acute myeloid leukemia in patient-derived mouse models” (Science translational medicine, 2021).

Where two headings read alike, the source gives them in different places.

One test has as its target T1, SMYD3 (Homo sapiens, UniProt Q9H7B4).
T1 sequence (Q9H7B4 1-428): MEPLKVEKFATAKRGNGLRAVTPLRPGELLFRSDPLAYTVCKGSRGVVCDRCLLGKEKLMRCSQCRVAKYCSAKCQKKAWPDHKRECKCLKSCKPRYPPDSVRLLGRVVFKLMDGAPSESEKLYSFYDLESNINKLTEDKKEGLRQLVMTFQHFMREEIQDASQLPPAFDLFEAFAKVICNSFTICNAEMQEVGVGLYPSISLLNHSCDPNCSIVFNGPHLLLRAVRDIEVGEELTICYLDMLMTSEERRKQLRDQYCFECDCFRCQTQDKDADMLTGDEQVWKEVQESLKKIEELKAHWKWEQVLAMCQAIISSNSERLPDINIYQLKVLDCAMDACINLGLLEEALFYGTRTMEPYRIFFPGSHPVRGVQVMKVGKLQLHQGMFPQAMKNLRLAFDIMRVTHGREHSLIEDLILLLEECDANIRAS
Put plainly: biochemical. To be noted: Substrate:=MEKK2. Further details: protein methyltransferase selectivity panel, enzyme activity relative to DMSO controls, single concentration in duplicate. The method, then:
(§1) We next assessed selectivity of MS67 against 22 protein methyltransferases (table S2) and a broad panel of common drug targets including 45 kinases (table S3) and 44 G protein–coupled receptors (GPCR), ion channels, and transporters (table S4). […] We subsequently determined that MS67 had moderate binding affinity (Ki = 1.0 ± 0.8 μM) to Sigma 2 receptor (fig. S10).

Another test has as its target T2, GLP (Homo sapiens, UniProt Q9H9B1).
T2 construct: gene EHMT1
T2 sequence (Q9H9B1 1-1298): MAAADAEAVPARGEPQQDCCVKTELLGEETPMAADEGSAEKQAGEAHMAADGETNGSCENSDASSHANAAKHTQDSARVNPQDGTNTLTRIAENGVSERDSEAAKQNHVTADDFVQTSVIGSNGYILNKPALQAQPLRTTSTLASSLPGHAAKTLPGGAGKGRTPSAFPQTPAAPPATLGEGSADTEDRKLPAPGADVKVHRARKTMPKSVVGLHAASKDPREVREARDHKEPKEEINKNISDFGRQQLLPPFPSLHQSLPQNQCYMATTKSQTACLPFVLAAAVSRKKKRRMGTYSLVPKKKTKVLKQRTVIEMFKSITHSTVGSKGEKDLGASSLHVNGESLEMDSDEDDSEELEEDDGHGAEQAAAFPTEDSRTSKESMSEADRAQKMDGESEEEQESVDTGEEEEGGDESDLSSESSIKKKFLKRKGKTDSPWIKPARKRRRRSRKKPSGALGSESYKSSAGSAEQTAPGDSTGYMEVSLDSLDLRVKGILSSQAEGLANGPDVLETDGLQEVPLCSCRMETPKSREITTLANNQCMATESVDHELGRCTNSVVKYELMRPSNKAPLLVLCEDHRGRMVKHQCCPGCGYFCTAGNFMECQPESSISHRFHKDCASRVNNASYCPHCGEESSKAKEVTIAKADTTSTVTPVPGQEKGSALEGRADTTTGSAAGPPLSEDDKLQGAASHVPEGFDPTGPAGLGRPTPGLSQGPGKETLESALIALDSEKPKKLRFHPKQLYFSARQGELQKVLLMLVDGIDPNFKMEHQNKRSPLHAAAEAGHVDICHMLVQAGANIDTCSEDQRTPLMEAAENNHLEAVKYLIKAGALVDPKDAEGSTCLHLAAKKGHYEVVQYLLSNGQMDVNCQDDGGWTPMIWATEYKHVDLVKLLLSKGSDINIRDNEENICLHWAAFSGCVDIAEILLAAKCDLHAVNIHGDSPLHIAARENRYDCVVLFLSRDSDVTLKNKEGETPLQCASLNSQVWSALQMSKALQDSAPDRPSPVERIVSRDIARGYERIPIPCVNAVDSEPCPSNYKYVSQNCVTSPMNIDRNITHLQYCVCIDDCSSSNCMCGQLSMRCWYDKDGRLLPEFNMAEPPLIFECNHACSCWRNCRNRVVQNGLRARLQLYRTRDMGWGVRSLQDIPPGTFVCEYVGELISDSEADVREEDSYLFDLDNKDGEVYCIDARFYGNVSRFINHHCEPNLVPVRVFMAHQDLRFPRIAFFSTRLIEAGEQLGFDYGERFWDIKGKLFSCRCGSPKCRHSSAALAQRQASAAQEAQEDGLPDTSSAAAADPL
The test is described as follows: biochemical. Further details: protein methyltransferase selectivity panel, enzyme activity relative to DMSO controls, single concentration in duplicate. To be noted: Substrate:=Histone H3 1-21. The protocol:
as §1

The mark [1] stands for this setting: read-out: Enzyme % Activity (relative to DMSO controls) / MS67 / 10 / Data 1:
Where [2] appears, read: read-out: Enzyme % Activity (relative to DMSO controls) / MS67 / 10 / Data 2:

In the case of `Cc1ncsc1-c1ccc([C@H](C)NC(=O)[C@@H]2C[C@@H](O)CN2C(=O)[C@@H](NC(=O)CNC(=O)c2ccc(F)c(-c3ccc(N4C[C@@H](C)N(C)[C@@H](C)C4)c(NC(=O)c4c[nH]c(=O)cc4C(F)(F)F)c3)c2)C(C)(C)C)cc1` [MS67], the remaining activity at 10 µM on SMYD3 (setting [1]) was found to be 103%; on SMYD3 (setting [2]), 116%; on GLP (setting [1]) it was 93.6%; on GLP (setting [2]), 92.2%.
